Results taken from ChEMBL document CHEMBL3526122, “Identification of UDP-glucuronosyltransferases responsible for the glucuronidation of darexaban, an oral factor Xa inhibitor, in human liver and intestine” (Drug Metab Dispos, 2012).

What was measured:
[1] = molecular target: T1, UDP-glucuronosyltransferase 1A9 (Homo sapiens, UniProt O60656); assay: Activity of human recombinant UGT1A9 expressed in baculovirus-infected insect cells assessed as unbound intrinsic clearance for enzyme-mediated glucuronidation per mg of protein after 5 mins by Michaelis-Menten plot analysis in presence of UDPGA and absence of fatty acid free BSA; format: ADME
T1 sequence (O60656 whole entry): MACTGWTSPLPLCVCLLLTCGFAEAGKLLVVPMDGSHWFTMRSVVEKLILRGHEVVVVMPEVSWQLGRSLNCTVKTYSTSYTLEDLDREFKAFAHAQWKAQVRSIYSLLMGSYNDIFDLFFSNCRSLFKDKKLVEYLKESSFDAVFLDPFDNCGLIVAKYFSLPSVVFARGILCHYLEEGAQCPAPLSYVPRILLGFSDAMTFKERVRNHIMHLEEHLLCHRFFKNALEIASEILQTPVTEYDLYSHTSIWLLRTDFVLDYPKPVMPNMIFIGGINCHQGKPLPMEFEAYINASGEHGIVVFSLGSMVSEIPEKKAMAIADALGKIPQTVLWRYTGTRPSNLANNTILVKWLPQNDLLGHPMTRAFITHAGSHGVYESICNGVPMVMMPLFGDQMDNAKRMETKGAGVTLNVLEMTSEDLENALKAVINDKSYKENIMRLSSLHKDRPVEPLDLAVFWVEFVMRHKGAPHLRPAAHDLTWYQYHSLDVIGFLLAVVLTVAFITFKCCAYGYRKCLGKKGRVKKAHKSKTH

[2] = molecular target: T2, UDP-glucuronosyltransferase 1A8 (Homo sapiens, UniProt Q9HAW9); assay: Activity of human recombinant UGT1A8 expressed in baculovirus-infected insect cells assessed as intrinsic clearance for enzyme-mediated glucuronide formation per mg of protein at 1 to 250 uM after 10 mins in presence of UDPGA; format: ADME
T2 sequence (Q9HAW9 whole entry): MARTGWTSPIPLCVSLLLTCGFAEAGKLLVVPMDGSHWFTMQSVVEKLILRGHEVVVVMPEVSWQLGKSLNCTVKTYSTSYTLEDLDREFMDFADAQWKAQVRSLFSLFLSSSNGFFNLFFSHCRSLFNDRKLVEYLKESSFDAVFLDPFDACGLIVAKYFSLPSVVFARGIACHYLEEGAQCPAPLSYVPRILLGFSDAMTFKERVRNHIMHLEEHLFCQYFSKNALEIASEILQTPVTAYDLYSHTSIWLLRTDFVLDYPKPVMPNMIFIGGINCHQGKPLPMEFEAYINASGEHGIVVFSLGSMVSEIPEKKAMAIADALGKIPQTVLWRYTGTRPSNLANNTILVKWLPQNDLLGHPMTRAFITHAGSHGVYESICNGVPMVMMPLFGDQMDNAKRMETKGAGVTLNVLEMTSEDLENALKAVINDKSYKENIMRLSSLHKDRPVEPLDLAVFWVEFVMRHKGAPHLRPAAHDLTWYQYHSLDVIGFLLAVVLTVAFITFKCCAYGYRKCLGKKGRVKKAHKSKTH

[3] = molecular target: T1, UDP-glucuronosyltransferase 1A9; assay: Activity of human recombinant UGT1A9 expressed in baculovirus-infected insect cells assessed as unbound intrinsic clearance for enzyme-mediated glucuronidation per mg of protein after 5 mins by Michaelis-Menten plot analysis in presence of UDPGA and 2% fatty acid free BSA; format: ADME
[4] = tested on: Liver microsome; assay: Unbound intrinsic clearance in human liver microsomes assessed per mg of protein after 10 mins in presence of UDPGA and 0.1% fatty acid free BSA; format: ADME
[5] = Fraction unbound incubation mixture containing human recombinant UGT1A9 at 1 to 250 uM after 10 mins by ultrafiltration method in presence of 0.1% fatty acid free BSA
[6] = molecular target: T1, UDP-glucuronosyltransferase 1A9; assay: Activity of human recombinant UGT1A9 expressed in baculovirus-infected insect cells assessed as intrinsic clearance for enzyme-mediated glucuronide formation per mg of protein at 1 to 250 uM after 5 mins by Michaelis-Menten plot analysis in presence of UDPGA; format: ADME
[7] = molecular target: T1, UDP-glucuronosyltransferase 1A9; assay: Activity of human recombinant UGT1A9 expressed in baculovirus-infected insect cells assessed as unbound intrinsic clearance for enzyme-mediated glucuronidation per mg of protein after 5 mins by Michaelis-Menten plot analysis in presence of UDPGA and 0.5% fatty acid free BSA; format: ADME
[8] = molecular target: T3, UDP-glucuronosyltransferase 1A7 (Homo sapiens, UniProt Q9HAW7); assay: Activity of human recombinant UGT1A7 expressed in baculovirus-infected insect cells assessed as intrinsic clearance for enzyme-mediated glucuronide formation per mg of protein at 1 to 250 uM after 10 mins by Michaelis-Menten plot analysis in presence of UDPGA; format: ADME
T3 sequence (Q9HAW7 whole entry): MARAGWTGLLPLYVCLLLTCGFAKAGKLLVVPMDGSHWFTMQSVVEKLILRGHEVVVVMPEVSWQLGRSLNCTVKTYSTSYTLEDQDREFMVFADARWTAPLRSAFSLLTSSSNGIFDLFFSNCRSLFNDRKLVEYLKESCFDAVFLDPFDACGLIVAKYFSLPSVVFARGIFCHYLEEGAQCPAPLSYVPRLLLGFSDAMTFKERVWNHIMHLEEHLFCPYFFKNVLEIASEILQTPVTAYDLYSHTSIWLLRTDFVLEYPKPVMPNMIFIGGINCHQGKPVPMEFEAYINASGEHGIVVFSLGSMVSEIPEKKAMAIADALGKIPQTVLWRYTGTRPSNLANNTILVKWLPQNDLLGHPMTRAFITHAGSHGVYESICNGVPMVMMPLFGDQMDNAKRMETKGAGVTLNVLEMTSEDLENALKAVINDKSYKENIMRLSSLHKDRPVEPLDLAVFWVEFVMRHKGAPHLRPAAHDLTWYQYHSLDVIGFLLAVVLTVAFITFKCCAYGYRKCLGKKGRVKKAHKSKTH

[9] = Ratio of Km for drug metabolism in human liver microsomes to Km for human recombinant UGT1A9-mediated drug metabolism; format: ADME; settings: recombinant enzyme
[10] = Drug metabolism in human intestinal microsomes assessed as glucuronidation after 10 mins by Michaelis-Menten plot; format: ADME, Intestine, Microsome
[11] = molecular target: T4, UDP-glucuronosyltransferase 1A3 (Homo sapiens, UniProt P35503); assay: Activity of human recombinant UGT1A3 expressed in baculovirus-infected insect cells assessed as enzyme-mediated glucuronidation per mg of protein after 10 mins in presence of UDPGA; format: ADME
T4 sequence (P35503 whole entry): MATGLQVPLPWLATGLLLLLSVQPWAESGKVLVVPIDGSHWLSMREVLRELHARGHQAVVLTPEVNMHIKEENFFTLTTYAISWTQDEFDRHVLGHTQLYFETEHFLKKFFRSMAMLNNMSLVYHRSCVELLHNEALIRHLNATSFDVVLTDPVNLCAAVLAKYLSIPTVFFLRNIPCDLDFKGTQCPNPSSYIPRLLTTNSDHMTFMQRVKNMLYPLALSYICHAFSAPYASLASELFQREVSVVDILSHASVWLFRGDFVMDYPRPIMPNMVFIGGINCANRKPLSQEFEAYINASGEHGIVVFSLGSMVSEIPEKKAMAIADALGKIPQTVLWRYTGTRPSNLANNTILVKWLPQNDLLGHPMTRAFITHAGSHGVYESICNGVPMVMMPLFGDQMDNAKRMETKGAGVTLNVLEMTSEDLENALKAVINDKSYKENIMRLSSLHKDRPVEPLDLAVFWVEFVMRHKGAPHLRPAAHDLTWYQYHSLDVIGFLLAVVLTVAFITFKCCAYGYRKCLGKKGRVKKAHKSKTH

- CL free [1]: 138 µL/min/mg
- clearance [2]: 51.5 µL/min/mg
- CL free [3]: 316 µL/min/mg
- CL free [4]: 184 µL/min/mg
- clearance [6]: 132 µL/min/mg
- CL free [7]: 257 µL/min/mg
- clearance [8]: 12.3 µL/min/mg
- Ratio [9]: 4.3
- Km at 10 min [10]: 27.3 µM
- Drug metabolism [11]: < 0.01 nmol/min/mg
Structure (SMILES): COc1ccc(C(=O)Nc2cccc(O)c2NC(=O)c2ccc(N3CCCN(C)CC3)cc2)cc1.O=C(O)CCC(=O)O
- Fu [5]: 0.755
